From patent publication US20090131437A1, “DISUBSTITUTED UREAS AS KINASE INHIBITORS” (CORIUM INTERNATIONAL, INC., priority 2005, published 2009)

| Structure (SMILES) | melting point [°C] |
| --- | --- |
| CC(C)(C)c1cc(NC(=O)Nc2ccc(Oc3cc(N)ncn3)cc2F)n(-c2ccc(F)cc2)n1 [Example 14, 1-[4-(6-Amino-pyrimidin-4-yloxy)-2-fluoro-phenyl]-3-[5-tert-butyl-2-(4-fluoro-phenyl]-2H-pyrazol-3-yl]-urea] | 141 to 142 |
| CNc1cc(Oc2ccc(NC(=O)Nc3cc(C(C)(C)C)nn3-c3cccc(C(=O)N4CCN(C)CC4)c3)cc2)ncn1 [Example 15, 1-{5-tert-Butyl-2-[3-(4-methyl-piperazine-1-carbonyl)-phenyl]-2H-pyrazol-3-yl}-3-[4-(6-methylamino-pyrimidin-4-yloxy)-phenyl]-urea] | 146 to 147 |
